Assay results from ChEMBL document CHEMBL1201862, “PubChem BioAssay data set” (2004).
Each block holds one compound with its values, some of them ahead of it. Activity calls are given as the source filed them.

How the values were obtained:
[1] = inhibitors of intracellular T. cruzi replication, confirmation, NIH3T3 host cells, beta-gal luminescence (AID 2044); format: functional, cell-based;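 note: intracellular parasites grown in NIH/3T3 mouse fibroblasts as host cells; luminescent beta-galactosidase reporter signal from transgenic T. cruzi replicating inside host cells; inhibitors lower the luminescence signal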
[2] = THP-1 cell cytotoxicity, dose response, cytotoxicity control for Vif-APOBEC3G degradation inhibitor project, THP-1 cells (AID 1117359); format: functional; details: Human immunodeficiency virus 1, THP-1
[3] = target: T1, RNA-binding protein pos-1 (Caenorhabditis elegans, UniProt G5EF15); experiment: inhibitors of POS-1/mex-3 RNA binding, dose response, biochemical, fluorescence polarization (AID 1964);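 note: purified POS-1 fused to maltose binding protein made in E. coli; potency of compounds blocking POS-1 binding to fluorescent RNA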
T1 sequence (G5EF15 whole entry): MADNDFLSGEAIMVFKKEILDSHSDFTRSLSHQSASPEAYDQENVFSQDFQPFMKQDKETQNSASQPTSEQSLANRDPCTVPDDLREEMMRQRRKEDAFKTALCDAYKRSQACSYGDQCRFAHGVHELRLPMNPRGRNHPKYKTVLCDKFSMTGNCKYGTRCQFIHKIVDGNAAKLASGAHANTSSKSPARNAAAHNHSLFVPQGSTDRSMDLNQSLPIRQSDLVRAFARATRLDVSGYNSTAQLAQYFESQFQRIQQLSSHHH

[4] = target: T2, Apoptotic protease-activating factor 1 (Homo sapiens, UniProt O14727); format: functional
T2 sequence (O14727 whole entry): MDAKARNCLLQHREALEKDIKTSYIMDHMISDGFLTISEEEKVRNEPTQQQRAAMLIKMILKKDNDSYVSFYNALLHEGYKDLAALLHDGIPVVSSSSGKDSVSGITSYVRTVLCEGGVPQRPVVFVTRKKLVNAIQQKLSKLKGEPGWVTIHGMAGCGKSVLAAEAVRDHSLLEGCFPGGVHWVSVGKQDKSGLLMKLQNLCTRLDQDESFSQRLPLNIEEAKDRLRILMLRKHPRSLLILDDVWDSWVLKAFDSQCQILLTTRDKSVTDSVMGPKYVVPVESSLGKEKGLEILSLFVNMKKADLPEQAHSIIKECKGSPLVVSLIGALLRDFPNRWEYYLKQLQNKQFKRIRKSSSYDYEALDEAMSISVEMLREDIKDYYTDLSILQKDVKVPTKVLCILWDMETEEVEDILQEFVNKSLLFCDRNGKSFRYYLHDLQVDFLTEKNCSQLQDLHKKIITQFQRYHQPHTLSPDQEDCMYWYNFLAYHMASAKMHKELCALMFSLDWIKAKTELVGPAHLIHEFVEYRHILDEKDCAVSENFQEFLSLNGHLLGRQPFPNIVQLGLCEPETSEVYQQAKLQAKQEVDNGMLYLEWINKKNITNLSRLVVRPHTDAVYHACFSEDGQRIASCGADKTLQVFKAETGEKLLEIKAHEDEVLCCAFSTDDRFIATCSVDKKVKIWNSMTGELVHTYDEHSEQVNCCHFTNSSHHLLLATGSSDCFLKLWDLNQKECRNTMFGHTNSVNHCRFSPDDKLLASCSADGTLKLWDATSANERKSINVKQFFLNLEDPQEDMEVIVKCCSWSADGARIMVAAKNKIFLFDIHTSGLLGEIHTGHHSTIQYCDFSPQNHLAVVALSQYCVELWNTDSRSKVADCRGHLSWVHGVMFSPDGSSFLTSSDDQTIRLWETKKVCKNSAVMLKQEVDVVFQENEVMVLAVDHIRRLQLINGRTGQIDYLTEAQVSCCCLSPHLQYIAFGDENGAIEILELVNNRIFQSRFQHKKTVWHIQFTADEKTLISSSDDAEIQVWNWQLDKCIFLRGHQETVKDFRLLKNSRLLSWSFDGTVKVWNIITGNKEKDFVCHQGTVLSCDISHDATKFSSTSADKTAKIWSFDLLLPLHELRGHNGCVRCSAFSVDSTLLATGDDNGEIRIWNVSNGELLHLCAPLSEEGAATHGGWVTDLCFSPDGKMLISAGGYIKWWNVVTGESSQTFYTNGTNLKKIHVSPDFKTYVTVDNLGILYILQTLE

[5] = target: T3, Alkaline phosphatase, tissue-nonspecific isozyme (Homo sapiens, UniProt P05186); experiment: TNAP enzyme activators, dose response, selectivity assay for mouse IAP activator project, biochemical, TNAP isozyme, mouse IAP uHTS hits (AID 488880); format: functional
T3 sequence (P05186 whole entry): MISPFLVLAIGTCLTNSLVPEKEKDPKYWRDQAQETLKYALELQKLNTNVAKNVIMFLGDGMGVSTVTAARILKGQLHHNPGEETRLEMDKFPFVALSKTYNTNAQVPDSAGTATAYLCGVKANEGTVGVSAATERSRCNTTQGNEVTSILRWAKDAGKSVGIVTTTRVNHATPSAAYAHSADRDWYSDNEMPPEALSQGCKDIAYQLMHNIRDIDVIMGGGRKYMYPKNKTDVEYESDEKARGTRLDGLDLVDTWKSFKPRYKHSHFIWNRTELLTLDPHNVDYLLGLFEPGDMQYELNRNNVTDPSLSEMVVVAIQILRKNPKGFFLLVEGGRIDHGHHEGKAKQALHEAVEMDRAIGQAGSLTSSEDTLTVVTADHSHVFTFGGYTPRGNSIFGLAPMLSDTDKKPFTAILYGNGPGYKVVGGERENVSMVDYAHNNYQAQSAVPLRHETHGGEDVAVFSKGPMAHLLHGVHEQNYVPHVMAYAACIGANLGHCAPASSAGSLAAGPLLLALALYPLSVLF

[6] = target: Dual specificity protein phosphatase 3 (Homo sapiens, UniProt P51452); experiment: VHR1 phosphatase inhibitors, primary screen, biochemical, absorbance, uHTS (AID 1654)
[7] = A375 melanoma cell viability loss, dose response, counter-screen for MITF inhibitor project, CellTiter-Glo luminescence, dry powder, set 4 (AID 624364); format: functional, cell-based; details: A-375;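 note: A375 melanoma cells are MITF independent so this is a counter screen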
[8] = Counterscreen for antagonists of the orexin 1 receptor (OX1R; HCRTR1): Fluorescence-based cell-based high throughput dose response assay to identify antagonists of the parental CHO cell line. [Related pubchem assays (depositor defined):AID434989, AID435008, AID463079, AID485270, AID492963, AID492964, AID492965, AID493232, AID504699, AID504701]; format: functional
[9] = target: Glycogen synthase kinase-3 beta (Homo sapiens, UniProt P49841); format: functional;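 note: value comes from a broad kinome profiling panel, with GSK3B as the panel member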
[10] = target: Serine/threonine-protein kinase PLK4 (Homo sapiens, UniProt O00444); format: functional;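 note: PLK4 measured as one member of a kinome-wide kinase profiling panel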
[11] = target: Cyclin-dependent kinase 9 (Homo sapiens, UniProt P50750); format: functional;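 note: value from the CDK9 entry of a kinome-spanning kinase panel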
[12] = target: Megakaryocyte-associated tyrosine-protein kinase (Homo sapiens, UniProt P42679); format: functional;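 note: affinity measured as one member of a kinase panel (Navigating the Kinome) against MATK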
[13] = target: Serine/threonine-protein kinase Chk1 (Homo sapiens, UniProt O14757); format: functional;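 note: measured as one member of a kinome-wide kinase profiling panel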
[14] = target: Calcium/calmodulin-dependent protein kinase type 1 (Homo sapiens, UniProt Q14012); format: functional
[15] = target: Testis-specific serine/threonine-protein kinase 1 (Homo sapiens, UniProt Q9BXA7); format: functional
[16] = target: cGMP-dependent protein kinase 1 (Homo sapiens, UniProt Q13976); format: functional;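 note: value from a kinome panel screen with PRKG1 as the panel member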
cGMP-dependent protein kinase 1, sequence (Q13976 whole entry): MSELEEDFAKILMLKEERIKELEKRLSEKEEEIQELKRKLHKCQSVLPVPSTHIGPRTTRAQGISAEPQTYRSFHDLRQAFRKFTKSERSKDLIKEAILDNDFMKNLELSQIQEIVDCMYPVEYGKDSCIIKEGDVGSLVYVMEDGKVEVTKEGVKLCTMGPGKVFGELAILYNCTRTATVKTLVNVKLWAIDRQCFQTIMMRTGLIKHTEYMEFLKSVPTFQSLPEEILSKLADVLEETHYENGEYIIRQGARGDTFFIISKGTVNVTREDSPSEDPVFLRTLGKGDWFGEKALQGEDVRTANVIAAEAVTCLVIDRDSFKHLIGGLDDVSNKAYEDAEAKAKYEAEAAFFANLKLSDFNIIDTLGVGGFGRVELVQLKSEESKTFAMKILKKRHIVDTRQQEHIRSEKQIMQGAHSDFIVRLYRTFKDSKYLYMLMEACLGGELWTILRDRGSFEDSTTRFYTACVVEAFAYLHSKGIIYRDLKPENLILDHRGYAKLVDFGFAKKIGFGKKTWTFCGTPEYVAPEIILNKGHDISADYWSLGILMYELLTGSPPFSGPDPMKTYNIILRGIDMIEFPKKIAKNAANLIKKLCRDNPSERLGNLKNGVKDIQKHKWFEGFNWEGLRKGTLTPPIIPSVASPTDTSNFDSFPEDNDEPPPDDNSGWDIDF

Dual specificity protein phosphatase 3, sequence (P51452 whole entry): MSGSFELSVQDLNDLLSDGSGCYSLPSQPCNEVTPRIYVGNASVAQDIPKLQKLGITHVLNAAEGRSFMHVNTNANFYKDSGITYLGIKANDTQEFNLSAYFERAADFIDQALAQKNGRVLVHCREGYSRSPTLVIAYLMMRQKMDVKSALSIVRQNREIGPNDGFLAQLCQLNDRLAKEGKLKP
Testis-specific serine/threonine-protein kinase 1, sequence (Q9BXA7 whole entry): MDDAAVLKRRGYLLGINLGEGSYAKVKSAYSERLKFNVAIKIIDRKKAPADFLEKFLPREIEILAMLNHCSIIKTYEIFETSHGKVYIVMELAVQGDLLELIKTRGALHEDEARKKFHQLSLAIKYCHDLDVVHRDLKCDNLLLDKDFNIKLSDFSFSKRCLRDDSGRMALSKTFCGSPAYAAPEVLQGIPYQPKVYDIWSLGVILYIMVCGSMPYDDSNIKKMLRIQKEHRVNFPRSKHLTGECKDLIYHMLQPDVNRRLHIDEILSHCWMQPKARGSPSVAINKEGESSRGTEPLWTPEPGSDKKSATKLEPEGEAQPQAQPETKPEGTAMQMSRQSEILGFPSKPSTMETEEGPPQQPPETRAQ
Serine/threonine-protein kinase Chk1, sequence (O14757 whole entry): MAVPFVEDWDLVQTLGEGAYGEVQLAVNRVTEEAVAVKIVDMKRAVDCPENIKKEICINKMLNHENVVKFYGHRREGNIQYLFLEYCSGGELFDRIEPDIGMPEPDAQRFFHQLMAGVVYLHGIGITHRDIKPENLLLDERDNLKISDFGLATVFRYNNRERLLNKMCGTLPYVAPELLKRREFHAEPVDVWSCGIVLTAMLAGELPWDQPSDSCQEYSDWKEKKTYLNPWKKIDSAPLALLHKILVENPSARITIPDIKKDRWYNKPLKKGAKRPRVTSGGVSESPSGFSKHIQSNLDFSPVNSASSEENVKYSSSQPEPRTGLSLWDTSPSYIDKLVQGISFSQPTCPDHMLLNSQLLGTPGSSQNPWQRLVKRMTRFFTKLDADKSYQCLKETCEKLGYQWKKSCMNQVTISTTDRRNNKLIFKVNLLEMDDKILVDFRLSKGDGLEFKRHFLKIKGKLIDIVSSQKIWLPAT
Serine/threonine-protein kinase PLK4, sequence (O00444 whole entry): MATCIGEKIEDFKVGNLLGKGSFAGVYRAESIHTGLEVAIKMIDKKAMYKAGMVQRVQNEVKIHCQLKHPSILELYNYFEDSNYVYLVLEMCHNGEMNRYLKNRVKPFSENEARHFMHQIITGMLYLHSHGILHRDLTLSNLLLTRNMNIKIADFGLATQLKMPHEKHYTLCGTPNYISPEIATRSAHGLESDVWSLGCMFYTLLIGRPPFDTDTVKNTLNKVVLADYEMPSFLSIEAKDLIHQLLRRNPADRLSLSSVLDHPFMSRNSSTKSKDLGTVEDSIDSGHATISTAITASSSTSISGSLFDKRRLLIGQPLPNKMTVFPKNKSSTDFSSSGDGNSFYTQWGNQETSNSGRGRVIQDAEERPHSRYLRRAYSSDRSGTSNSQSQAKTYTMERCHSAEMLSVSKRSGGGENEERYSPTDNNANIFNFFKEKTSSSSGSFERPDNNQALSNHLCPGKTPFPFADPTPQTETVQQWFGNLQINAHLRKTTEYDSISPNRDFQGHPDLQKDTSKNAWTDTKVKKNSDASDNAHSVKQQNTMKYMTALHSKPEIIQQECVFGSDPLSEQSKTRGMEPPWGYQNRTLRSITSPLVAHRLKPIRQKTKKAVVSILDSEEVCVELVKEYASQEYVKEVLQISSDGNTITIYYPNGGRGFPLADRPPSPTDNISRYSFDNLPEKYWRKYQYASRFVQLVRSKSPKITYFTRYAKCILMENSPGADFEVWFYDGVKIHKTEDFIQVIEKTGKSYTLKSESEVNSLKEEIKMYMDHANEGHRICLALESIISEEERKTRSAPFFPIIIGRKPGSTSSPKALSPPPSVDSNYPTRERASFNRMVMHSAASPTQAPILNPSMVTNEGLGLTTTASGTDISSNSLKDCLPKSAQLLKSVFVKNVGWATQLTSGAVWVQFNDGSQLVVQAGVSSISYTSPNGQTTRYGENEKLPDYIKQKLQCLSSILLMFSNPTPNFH
Glycogen synthase kinase-3 beta, sequence (P49841 whole entry): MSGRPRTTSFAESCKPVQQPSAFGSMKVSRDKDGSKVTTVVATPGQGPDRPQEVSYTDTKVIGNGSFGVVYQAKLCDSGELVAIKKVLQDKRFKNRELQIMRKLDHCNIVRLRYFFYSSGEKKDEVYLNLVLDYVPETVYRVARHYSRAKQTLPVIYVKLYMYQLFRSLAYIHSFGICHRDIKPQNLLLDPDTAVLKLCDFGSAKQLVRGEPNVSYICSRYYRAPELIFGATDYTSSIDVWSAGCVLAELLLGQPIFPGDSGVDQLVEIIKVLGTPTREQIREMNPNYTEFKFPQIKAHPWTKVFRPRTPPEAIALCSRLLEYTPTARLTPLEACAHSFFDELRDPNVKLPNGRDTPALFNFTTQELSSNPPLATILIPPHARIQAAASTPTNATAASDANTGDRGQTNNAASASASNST
Megakaryocyte-associated tyrosine-protein kinase, sequence (P42679 whole entry): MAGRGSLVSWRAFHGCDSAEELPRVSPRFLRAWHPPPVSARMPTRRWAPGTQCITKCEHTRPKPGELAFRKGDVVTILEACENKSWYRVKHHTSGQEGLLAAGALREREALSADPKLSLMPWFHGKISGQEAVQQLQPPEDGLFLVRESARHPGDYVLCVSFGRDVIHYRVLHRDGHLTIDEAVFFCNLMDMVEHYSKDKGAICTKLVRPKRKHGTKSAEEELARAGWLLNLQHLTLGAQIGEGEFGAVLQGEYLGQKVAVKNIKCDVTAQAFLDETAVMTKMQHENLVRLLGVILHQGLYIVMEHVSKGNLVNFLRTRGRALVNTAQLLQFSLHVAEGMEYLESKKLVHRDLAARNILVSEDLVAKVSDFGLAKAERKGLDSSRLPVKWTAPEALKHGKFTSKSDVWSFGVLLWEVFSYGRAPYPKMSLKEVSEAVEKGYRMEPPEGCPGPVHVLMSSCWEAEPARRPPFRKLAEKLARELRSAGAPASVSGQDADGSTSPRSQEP
Cyclin-dependent kinase 9, sequence (P50750 whole entry): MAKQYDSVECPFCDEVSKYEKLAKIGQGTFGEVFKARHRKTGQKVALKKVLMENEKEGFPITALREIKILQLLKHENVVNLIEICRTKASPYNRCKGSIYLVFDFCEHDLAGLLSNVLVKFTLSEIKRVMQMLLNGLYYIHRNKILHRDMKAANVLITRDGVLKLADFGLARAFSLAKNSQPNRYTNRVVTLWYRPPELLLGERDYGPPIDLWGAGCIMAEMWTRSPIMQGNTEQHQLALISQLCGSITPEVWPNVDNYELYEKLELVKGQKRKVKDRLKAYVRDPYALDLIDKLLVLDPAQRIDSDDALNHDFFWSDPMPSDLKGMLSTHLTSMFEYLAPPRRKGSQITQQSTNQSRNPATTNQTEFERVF
Calcium/calmodulin-dependent protein kinase type 1, sequence (Q14012 whole entry): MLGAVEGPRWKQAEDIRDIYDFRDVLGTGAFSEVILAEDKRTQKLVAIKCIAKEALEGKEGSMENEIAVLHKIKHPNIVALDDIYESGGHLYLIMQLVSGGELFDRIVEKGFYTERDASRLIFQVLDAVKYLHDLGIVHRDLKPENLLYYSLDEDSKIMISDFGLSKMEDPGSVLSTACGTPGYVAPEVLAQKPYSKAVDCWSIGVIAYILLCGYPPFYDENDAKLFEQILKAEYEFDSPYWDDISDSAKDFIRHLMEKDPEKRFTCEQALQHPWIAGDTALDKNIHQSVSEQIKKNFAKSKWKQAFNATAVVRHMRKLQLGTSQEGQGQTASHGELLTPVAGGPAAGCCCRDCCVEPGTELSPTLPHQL

SMILES: CCOC(=O)C(C(=O)OCC)c1cc(Br)c2noc3c2c1C(=O)c1ccccc1-3
EC50 [1]: 510 nM (active) | CC50 [2]: 19200 nM (active) | EC50 [3]: 9230 nM (active) | IC50 [4]: 47700 nM (active)

SMILES: CS(=O)(=O)c1ccc2c(c1)SC1=NC(=O)/C(=C/c3ccc(O)c(O)c3)C(=N)N12
EC50 [5]: 77500 nM (active) | IC50 [6]: 10400 nM (active)

SMILES: C=CCNC1=C(Cl)C(=O)c2ccccc2C1=O
AC50 [7]: > 70000 nM (inactive)

SMILES: CN(C)c1ccc(-c2nnc(-c3cccs3)o2)cc1
IC50 [8]: > 49700 nM (inactive)

Ki [9]: > 100 nM (inactive) | Ki [10]: 79.4 nM (active) | Ki [11]: 501 nM (active) | Ki [12]: > 2000 nM (inactive) | Ki [13]: 3980 nM (active) | Ki [14]: > 1580 nM (inactive) | Ki [15]: > 1580 nM (inactive) | Ki [16]: 631 nM (active)
SMILES: COc1ccc(C(=O)Nc2n[nH]c3ccc(-c4cn(Cc5ccccc5)nn4)cc23)cc1OC
